Where “and” joins values, the source holds several entries; their conditions need not be identical. Equal entries are not always repeated.
System: 435261-313-R-J1-PDC tumor spheroid viability
Experiment: Anticancer human tumor 435261-313-R-J1-PDC patient-derived colon adenocarcinoma cell line growth inhibition [PI3K]
Conditions: spheroids with HUVEC and MSC; for viability, T/C: stronger effect = lower value
How it was run: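 Stroma-containing spheroids: tumor line, pooled-donor HUVEC, hMSC. Treatments: targeted agents with PI3K inhibitors. Dosing: clinically relevant, half-log spacing, 10 microM ceiling without known Cmax. Read-out: cell viability.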

[1] = curve of first compound, second compound 0.0316 µM
[2] = curve of first compound, second compound 0.1 µM
[3] = curve of first compound, second compound 0.316 µM
[4] = curve of first compound, second compound 1 µM
[5] = curve of first compound, second compound 3.16 µM
[6] = curve of first compound, second compound 10 µM
[7] = second compound 0.0316 µM, first compound 0.0316 µM
[8] = second compound 0.0316 µM, first compound 0.1 µM
[9] = second compound 0.0316 µM, first compound 0.316 µM
[10] = second compound 0.0316 µM, first compound 1 µM
[11] = second compound 0.0316 µM, first compound 3.16 µM
[12] = second compound 0.0316 µM, first compound 10 µM
[13] = second compound 0.1 µM, first compound 0.0316 µM
[14] = second compound 0.1 µM, first compound 0.1 µM
[15] = second compound 0.1 µM, first compound 0.316 µM
[16] = second compound 0.1 µM, first compound 1 µM
[17] = second compound 0.1 µM, first compound 3.16 µM
[18] = second compound 0.1 µM, first compound 10 µM
[19] = second compound 0.316 µM, first compound 0.0316 µM
[20] = second compound 0.316 µM, first compound 0.1 µM
[21] = second compound 0.316 µM, first compound 0.316 µM
[22] = second compound 0.316 µM, first compound 1 µM
[23] = second compound 0.316 µM, first compound 3.16 µM
[24] = second compound 0.316 µM, first compound 10 µM
[25] = second compound 1 µM, first compound 0.0316 µM
[26] = second compound 1 µM, first compound 0.1 µM
[27] = second compound 1 µM, first compound 0.316 µM
[28] = second compound 1 µM, first compound 1 µM
[29] = second compound 1 µM, first compound 3.16 µM
[30] = second compound 1 µM, first compound 10 µM
[31] = second compound 3.16 µM, first compound 0.0316 µM
[32] = second compound 3.16 µM, first compound 0.1 µM
[33] = second compound 3.16 µM, first compound 0.316 µM
[34] = second compound 3.16 µM, first compound 1 µM
[35] = second compound 3.16 µM, first compound 3.16 µM
[36] = second compound 3.16 µM, first compound 10 µM
[37] = second compound 10 µM, first compound 0.0316 µM
[38] = second compound 10 µM, first compound 0.1 µM
[39] = second compound 10 µM, first compound 0.316 µM
[40] = second compound 10 µM, first compound 1 µM
[41] = second compound 10 µM, first compound 3.16 µM
[42] = second compound 10 µM, first compound 10 µM
[43] = curve of first compound, second compound 0.00316 µM
[44] = curve of first compound, second compound 0.01 µM
[45] = second compound 0.00316 µM, first compound 0.0316 µM
[46] = second compound 0.00316 µM, first compound 0.1 µM
[47] = second compound 0.00316 µM, first compound 0.316 µM
[48] = second compound 0.00316 µM, first compound 1 µM
[49] = second compound 0.00316 µM, first compound 3.16 µM
[50] = second compound 0.00316 µM, first compound 10 µM
[51] = second compound 0.01 µM, first compound 0.0316 µM
[52] = second compound 0.01 µM, first compound 0.1 µM
[53] = second compound 0.01 µM, first compound 0.316 µM
[54] = second compound 0.01 µM, first compound 1 µM
[55] = second compound 0.01 µM, first compound 3.16 µM
[56] = second compound 0.01 µM, first compound 10 µM
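Also: spheroids exposed to compounds for 7 days.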

CC(Cn1ccc(-c2ccc(C#N)c(Cl)c2)n1)NC(=O)c1cc(C(C)O)[nH]n1 (stereo not given) + Cc1nc(NC(=O)N2CCCC2C(N)=O)sc1-c1ccnc(C(C)(C)C(F)(F)F)c1
IC50 [1]: > 10000 nM
IC50 [2]: > 10000 nM
IC50 [3]: < 31.6 nM
IC50 [4]: < 31.6 nM
IC50 [5]: < 31.6 nM
IC50 [6]: < 31.6 nM
viability, T/C [7]: 107%
viability, T/C [8]: 71.6%
viability, T/C [9]: 83.6%
viability, T/C [10]: 84.8%
viability, T/C [11]: 101%
viability, T/C [12]: 106%
viability, T/C [13]: 68.3%
viability, T/C [14]: 70.4%
viability, T/C [15]: 71.3%
viability, T/C [16]: 72.2%
viability, T/C [17]: 66.3%
viability, T/C [18]: 73.7%
viability, T/C [19]: 37.6%
viability, T/C [20]: 54.1%
viability, T/C [21]: 37.3%
viability, T/C [22]: 50.9%
viability, T/C [23]: 63.7%
viability, T/C [24]: 49.4%
viability, T/C [25]: 24.6%
viability, T/C [26]: 36.8%
viability, T/C [27]: 36.3%
viability, T/C [28]: 34.2%
viability, T/C [29]: 38.6%
viability, T/C [30]: 31.6%
viability, T/C [31]: 17.4%
viability, T/C [32]: 17.7%
viability, T/C [33]: 15.4%
viability, T/C [34]: 17.9%
viability, T/C [35]: 18.8%
viability, T/C [36]: 20.1%
viability, T/C [37]: 9.77%
viability, T/C [38]: 6.96%
viability, T/C [39]: 8.76%
viability, T/C [40]: 9.85%
viability, T/C [41]: 10.7%
viability, T/C [42]: 6%

Cn1nccc1Nc1nccc(-c2ccn(C(CO)c3ccc(Cl)c(F)c3)c(=O)c2)n1 (stereo not given) + CC(Nc1ccc2c(c1)OCCn1cc(N3C(=O)OCC3C(F)F)nc1-2)C(N)=O
IC50 [43]: 421 nM
IC50 [44]: 218 nM
IC50 [1]: 105 nM
IC50 [2]: < 31.6 nM
IC50 [3]: < 31.6 nM
IC50 [4]: < 31.6 nM
viability, T/C [45]: 90.4%
viability, T/C [46]: 73.3%
viability, T/C [47]: 51.7%
viability, T/C [48]: 40.1%
viability, T/C [49]: 22.1%
viability, T/C [50]: 12.8%
viability, T/C [51]: 72.6%
viability, T/C [52]: 71.7%
viability, T/C [53]: 39.5%
viability, T/C [54]: 25.6%
viability, T/C [55]: 27%
viability, T/C [56]: 11.7%
viability, T/C [7]: 68%
viability, T/C [8]: 52.1%
viability, T/C [9]: 28.7%
viability, T/C [10]: 18.9%
viability, T/C [11]: 14.9%
viability, T/C [12]: 8.18%
viability, T/C [13]: 38.6%
viability, T/C [14]: 23.1%
viability, T/C [15]: 16.9%
viability, T/C [16]: 11.8%
viability, T/C [17]: 10.1%
viability, T/C [18]: 5.9%
viability, T/C [19]: 19.6%
viability, T/C [20]: 16.3%
viability, T/C [21]: 9.92%
viability, T/C [22]: 8.05%
viability, T/C [23]: 5.78%
viability, T/C [24]: 3.34%
viability, T/C [25]: 16.8%
viability, T/C [26]: 12.2%
viability, T/C [27]: 6.71%
viability, T/C [28]: 6.3%
viability, T/C [29]: 4.27%
viability, T/C [30]: 0.75%

C=CC(=O)N1CCN(c2nc(=O)n(-c3c(C)ccnc3C(C)C)c3nc(-c4c(O)cccc4F)c(F)cc23)C(C)C1 (stereo not given) + Cc1nc(NC(=O)N2CCCC2C(N)=O)sc1-c1ccnc(C(C)(C)C(F)(F)F)c1
IC50 [1]: > 10000 nM
IC50 [2]: > 10000 nM
IC50 [3]: > 10000 nM
IC50 [4]: < 31.6 nM
IC50 [5]: < 31.6 nM
IC50 [6]: < 31.6 nM
viability, T/C [7]: 70.5%
viability, T/C [8]: 84%
viability, T/C [9]: 80.8%
viability, T/C [10]: 91.5%
viability, T/C [11]: 112%
viability, T/C [12]: 121%
viability, T/C [13]: 71.5%
viability, T/C [14]: 71.3%
viability, T/C [15]: 73.5%
viability, T/C [16]: 75%
viability, T/C [17]: 129%
viability, T/C [18]: 119%
viability, T/C [19]: 49.5%
viability, T/C [20]: 52.4%
viability, T/C [21]: 56.9%
viability, T/C [22]: 58.4%
viability, T/C [23]: 77.1%
viability, T/C [24]: 78.9%
viability, T/C [25]: 35.1%
viability, T/C [26]: 25.1%
viability, T/C [27]: 27.6%
viability, T/C [28]: 39.6%
viability, T/C [29]: 36.6%
viability, T/C [30]: 54.8%
viability, T/C [31]: 15.3%
viability, T/C [32]: 19.4%
viability, T/C [33]: 17.9%
viability, T/C [34]: 23%
viability, T/C [35]: 24.3%
viability, T/C [36]: 18.6%
viability, T/C [37]: 9.68%
viability, T/C [38]: 9.35%
viability, T/C [39]: 8.96%
viability, T/C [40]: 9.4%
viability, T/C [41]: 9.55%
viability, T/C [42]: 6.21%

C#Cc1c(F)ccc2cc(O)cc(-c3ncc4c(N5CC6CCC(C5)N6)nc(OCC56CCCN5CC(F)C6)nc4c3F)c12 (stereo not given) + CC(Nc1ccc2c(c1)OCCn1cc(N3C(=O)OCC3C(F)F)nc1-2)C(N)=O
IC50 [43]: 3730 nM
IC50 [44]: 2040 nM
IC50 [1]: 1920 nM
IC50 [2]: 85.9 nM
IC50 [3]: < 31.6 nM
IC50 [4]: < 31.6 nM
viability, T/C [45]: 73.9%
viability, T/C [46]: 91.2%
viability, T/C [47]: 85.6%
viability, T/C [48]: 98.2%
viability, T/C [49]: 54.1%
viability, T/C [50]: 25.7%
viability, T/C [51]: 74.4%
viability, T/C [52]: 93.9%
viability, T/C [53]: 90.7%
viability, T/C [54]: 65.8%
viability, T/C [55]: 41.1%
viability, T/C [56]: 28.8%
viability, T/C [7]: 54.5%
viability, T/C [8]: 65.7%
viability, T/C [9]: 66.2%
viability, T/C [10]: 76.5%
viability, T/C [11]: 38.1%
viability, T/C [12]: 13.8%
viability, T/C [13]: 43.9%
viability, T/C [14]: 57%
viability, T/C [15]: 47.4%
viability, T/C [16]: 33.2%
viability, T/C [17]: 22.6%
viability, T/C [18]: 12.3%
viability, T/C [19]: 21.7%
viability, T/C [20]: 21.6%
viability, T/C [21]: 26.5%
viability, T/C [22]: 17.5%
viability, T/C [23]: 15.1%
viability, T/C [24]: 7.18%
viability, T/C [25]: 18.9%
viability, T/C [26]: 14.5%
viability, T/C [27]: 13.1%
viability, T/C [28]: 12%
viability, T/C [29]: 7.99%
viability, T/C [30]: 3.34%

CC(C)NCC(C(=O)N1CCN(c2ncnc3c2C(C)CC3O)CC1)c1ccc(Cl)cc1 (stereo not given)
viability, T/C (compound 0.0316 µM): 76.4% and 94.8% and 95.1%
viability, T/C (compound 0.1 µM): 90.5% and 77% and 73.2%
viability, T/C (compound 0.316 µM): 95.1% and 85.8% and 97.9%
viability, T/C (compound 1 µM): 57.7% and 48.9% and 79%
viability, T/C (compound 3.16 µM): 58.6% and 52.4% and 76.3%
viability, T/C (compound 10 µM): 20.2% and 36.6% and 29%
IC50 (curve of compound): 3560 nM and 965 nM and 5920 nM

Source: PubChem BioAssay AID1963976 (Molecular Pharmacology Branch, DTP, NCI, 2024)
